The test relates to A/WSN/33 H1N1 virus. The test is classed as cell-based, Influenza A virus.

Ends that are not written are not given here.

As for RRKKWLVFFVIYFFR [FP4, RRKKWLVFFVIYFFR], the knockdown was 100%.

Values taken from US20130205416A1 (priority 2010, published 2013).
